Our source for the IC50 values is patent publication US11649255B2, “Indazoles as hematopoietic progenitor kinase 1 (HPK1) inhibitors and methods using same” (1st Biotherapeutics, Inc., priority 2020, dated 2023).

Sequence of recombinant human HPK1 (Q92918 whole entry): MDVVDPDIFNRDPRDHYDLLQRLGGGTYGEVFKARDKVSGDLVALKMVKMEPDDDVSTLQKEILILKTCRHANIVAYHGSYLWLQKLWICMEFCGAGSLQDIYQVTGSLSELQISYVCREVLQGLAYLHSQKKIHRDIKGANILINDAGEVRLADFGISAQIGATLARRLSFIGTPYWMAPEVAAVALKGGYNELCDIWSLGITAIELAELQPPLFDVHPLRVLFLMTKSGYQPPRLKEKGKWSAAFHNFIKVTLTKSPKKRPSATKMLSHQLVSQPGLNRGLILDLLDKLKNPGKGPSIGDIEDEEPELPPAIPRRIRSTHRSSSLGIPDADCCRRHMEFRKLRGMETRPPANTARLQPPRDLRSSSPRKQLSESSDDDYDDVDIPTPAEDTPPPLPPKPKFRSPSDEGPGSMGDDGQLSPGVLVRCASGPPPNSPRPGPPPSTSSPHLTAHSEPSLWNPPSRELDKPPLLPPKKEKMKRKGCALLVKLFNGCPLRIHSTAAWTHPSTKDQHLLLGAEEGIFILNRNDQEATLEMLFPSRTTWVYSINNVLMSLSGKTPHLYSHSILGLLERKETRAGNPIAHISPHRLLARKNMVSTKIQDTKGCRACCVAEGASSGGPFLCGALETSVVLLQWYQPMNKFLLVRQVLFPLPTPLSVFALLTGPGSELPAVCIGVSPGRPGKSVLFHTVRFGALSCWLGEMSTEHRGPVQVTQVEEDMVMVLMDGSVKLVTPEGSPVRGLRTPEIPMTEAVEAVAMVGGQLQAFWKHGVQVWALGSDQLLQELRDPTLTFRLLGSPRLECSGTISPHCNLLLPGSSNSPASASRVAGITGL

This assay addresses recombinant human HPK1 (Homo sapiens (Human), UniProt Q92918). Briefly: HPK1 kinase assay (ADP-Glo). It is filed as biochemical. As to conditions: 25 μM ATP, MBP substrate. The essentials:
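Activity was read as ADP formed, detected by ADP-Glo luminescence after the reaction of 5 ng recombinant human HPK1 with MBP and ATP (stocks 0.5 μg/μl and 25 μM) for 40 min at 30 °C. Buffer was Tris pH 7.5 with MgCl2, BSA and DTT, with compound in 0.5% DMSO. IC50 came from inhibition curves.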
For `CCc1c(F)c(SCC(=O)N(C)C)c2[nH]ncc2c1-c1ccn2nc(NC(=O)[C@@H]3C[C@@H]3F)cc2c1` [Example 522], the IC50 is < 100 nM.
Regarding `CSc1c(F)c(N(C)C)c2[nH]ncc2c1-c1ccc2nc(NC(=O)[C@@H]3C[C@@H]3F)cn2c1` [Example 300, (1S,2S)-N-(6-(7-(dimethylamino)-6-fluoro-5-(methylthio)-1H-indazol-4-yl)imidazo[1,2-a]pyridin-2-yl)-2-fluorocyclopropane-1-carboxamide], the IC50 is < 100 nM.
The figure for `COc1ccc2[nH]ncc2c1-c1ccn2nc(NC(=O)[C@@H]3C[C@@H]3F)cc2c1` [Example 449, (1S,2S)-2-fluoro-N-(5-(5-methoxy-1H-indazol-4-yl)pyrazolo[1,5-a]pyridin-2-yl)cyclopropane-1-carboxamide] is 101 to 500 nM; for `N#Cc1ccc2[nH]ncc2c1-c1ccc2nc(NC(=O)C3CC3)sc2c1` [Example 29, N-(6-(5-cyano-1H-indazol-4-yl)benzo[d]thiazol-2-yl)cyclopropanecarboxamide] it is 101 to 500 nM.
In the case of `O=C(Nc1cc2cc(-c3c(Cl)c(F)c(N4CCC(F)C4)c4[nH]ncc34)ccn2n1)[C@@H]1C[C@@H]1F` (stereo partly drawn) [Example 642, (1S,2S)-N-(5-(5-chloro-6-fluoro-7-(3-fluoropyrrolidin-1-yl)-1H-indazol-4-yl)pyrazolo[1,5-a]pyridin-2-yl)-2-fluorocyclopropane-1-carboxamide] it was < 100 nM; in that of `COC(=O)c1c(F)c(C)c(-c2ccc3nc(NC(=O)[C@@H]4C[C@@H]4F)sc3n2)c2cn[nH]c12` [Example 183, methyl 6-fluoro-4-(2-((1S,2S)-2-fluorocyclopropane-1-carboxamido)thiazolo[5,4-b]pyridin-5-yl)-5-methyl-1H-indazole-7-carboxylate], < 100 nM; in that of `CN(c1c(F)c(Cl)c(-c2ccn3nc(NC(=O)[C@@H]4C[C@@H]4F)cc3c2)c2cn[nH]c12)C1CC1` [Example 625, (1S,2S)-N-(5-(5-chloro-7-(cyclopropyl(methyl)amino)-6-fluoro-1H-indazol-4-yl)pyrazolo[1,5-a]pyridin-2-yl)-2-fluorocyclopropane-1-carboxamide], < 100 nM.
In the case of `O=C(Nc1cn2cc(-c3c(Cl)c(F)c(C(F)F)c4[nH]ncc34)ccc2n1)[C@@H]1C[C@@H]1F` [Example 331, (1S,2S)-N-(6-(5-chloro-7-(difluoromethyl)-6-fluoro-1H-indazol-4-yl)imidazo[1,2-a]pyridin-2-yl)-2-fluorocyclopropane-1-carboxamide] it was < 100 nM; in that of `Cc1c(F)c(C(F)F)c2[nH]ncc2c1-c1ccn2nc(NC(=O)[C@@H]3C[C@@H]3F)cc2c1` [Example 591, (1S,2S)-N-(5-(7-(difluoromethyl)-6-fluoro-5-methyl-1H-indazol-4-yl)pyrazolo[1,5-a]pyridin-2-yl)-2-fluorocyclopropane-1-carboxamide], < 100 nM.
`O=C(Nc1nc2ccc(-c3c(CO)ccc4[nH]ncc34)cc2s1)C1CC1` [Example 25, N-(6-(5-(hydroxymethyl)-1H-indazol-4-yl)benzo[d]thiazol-2-yl)cyclopropanecarboxamide]: the IC50 lay within 501 to 1000 nM.
In the case of `O=C(Nc1cn2cc(-c3c(Cl)c(F)cc4[nH]ncc34)ccc2n1)[C@@H]1C[C@@H]1F` [Example 243, (1S,2S)-N-(6-(5-chloro-6-fluoro-1H-indazol-4-yl)imidazo[1,2-a]pyridin-2-yl)-2-fluorocyclopropane-1-carboxamide] it was < 100 nM.
In the case of `Cc1c(F)cc2[nH]ncc2c1-c1ccc2nc(NC(=O)[C@@H]3C[C@@H]3F)sc2c1` [Example 40, (1S,2S)-2-fluoro-N-(6-(6-fluoro-5-methyl-1H-indazol-4-yl)benzo[d]thiazol-2-yl)cyclopropane-1-carboxamide] it was < 100 nM.
With `O=C(Nc1cn2cc(-c3c(Cl)c(F)c(O)c4[nH]ncc34)ccc2n1)[C@@H]1C[C@@H]1F` [Example 295, (1S,2S)-N-(6-(5-chloro-6-fluoro-7-hydroxy-1H-indazol-4-yl)imidazo[1,2-a]pyridin-2-yl)-2-fluorocyclopropane-1-carboxamide], the IC50 is < 100 nM.
